From US11779572B1, “Methods of treating gastrointestinal stromal tumors” (Deciphera Pharmaceuticals, LLC, priority 2022, dated 2023)

System: advanced GIST
Assay: Randomized, double-blind, placebo-controlled study of ripretinib in advanced GIST (Example 1): efficacy
Format: in vivo, human
Method: Patients were randomized 2:1 to either 150 mg of ripretinib or placebo once daily. The primary efficacy endpoint is progression-free survival (PFS) as determined by independent radiologic review using modified Response Evaluation Criteria in Solid Tumors (RECIST). Secondary endpoints as determined by independent radiologic review using modified RECIST include Objective Response Rate (ORR), Time to Tumor Progression (TTP) and Overall Survival (OS).
Results. This study achieved its primary endpoint of improved PFS as determined by blinded independent central radiologic review using modified Response Evaluation Criteria in Solid Tumors (RECIST) version 1.1.
Patients whose disease progressed during the double blind phase of the study were escalated to 150 mg BID ripretinib, continued at the 150 mg QD dose, or discontinued in an open label-phase of the study.

[1] = patients crossed over from placebo to ripretinib

CCn1c(=O)c(-c2cc(NC(=O)Nc3ccccc3)c(F)cc2Br)cc2cnc(NC)cc21 [ripretinib]
benefit over placebo (PFS, OS), primary Exon 11 and Exon 9 mutation (150 mg QD, FIG. 17): derive a benefit | OS rate at 12 months (150 mg once daily): 65.4% | PFS rate at 6 months (150 mg once daily): 51% | reduction of risk of disease progression or death compared to placebo (150 mg once daily): 85% | median PFS (150 mg once daily, initial ripretinib arm): 27.6 weeks | median PFS (150 mg once daily, BICR, modified RECIST 1.1, double-blind cut): 6.3 months | median PFS (150 mg once daily, BICR, modified RECIST 1.1, double-blind cut, listed as Ripretinib): 6.3 (4.6, 6.9) months | PFS compared to placebo in subgroups with Exon 9, 11, 13 or 17 KIT mutations (FIG. 26A-D): PFS benefit in all assessed patient subgroups | Overall survival: number of deaths (%) (double-blind cut): 26 (31) | PFS by BICR: deaths, number (%) (double-blind cut): 5 (6) | PFS by BICR: number of events (%) (double-blind cut): 51 (60) | PFS by BICR: progressive disease, number (%) (double-blind cut): 46 (54) | objective/overall response rate by BICR (modified RECIST 1.1, double-blind cut): 9.4% | objective/overall response rate by BICR (modified RECIST 1.1, double-blind cut, listed as Ripretinib): 9% | Median OS (95% CI) (open-label cut): Not Reached | Median PFS (95% CI) (open-label cut): 6.3 (4.6, 8.1) months | Overall Response Rate by BICR (open-label cut): 12% | Overall survival: number of deaths (%) (open-label cut): 38 (45) | PFS by BICR: deaths, number (%) (open-label cut): 6 (7) | PFS by BICR: number of events (%) (open-label cut): 64 (75) | PFS by BICR: progressive disease, number (%) (open-label cut): 58 (68) | median OS [1]: 11.6 months | median PFS [1]: 20.0 weeks | median OS (patients initially randomized to ripretinib, double-blind cut): 15.1 months | median OS (patients initially randomized to ripretinib, double-blind cut, listed as Ripretinib): 15 (12, 15) months
